In patent publication US20020156084A1, “Use of N-benzyl piperazine and analogues as quality of life enhancers” (priority 2001, published 2002):

Experiment: Administration of N-Benzyl Piperazine (appetite suppressant / anti-depressant effect)
Assay type: in vivo
Conditions: administration of the compound; no test details given
Excerpt: This Patent description is of the use of N-Benzyl Piperazine and Analogues as Quality of Life Enhancers. Administration of N-Benzyl Piperazine has shown to be effective as an appetite suppressant and as a mild anti-depressant. Yeah though it be known that N-Benzyl Piperazine is a CNS stimulant and that stimulants usually are appetite suppressants, it was unknown and unobvious that the binding affinities for the serotonin receptor would be in “perfect” harmony with the norepinephrine receptor to eliminate the side effects of nervousness and the like. It was also unobvious that the increased levels of serotonin and norepinephrine would facilitate individuals in their daily lives to accomplish goals. That is why it is referred to as a Quality of Life Enhancer. Quality of Life Enhancer is defined as a weight loss supplement, appetite suppressant, anti-depressant, cognition enhancer or diet supplement.
Administration of the compounds is usually in the form of their pharmaceutically acceptable acid addition salts. Doses are within the range if 10 mg to 300 mg per day, but usually are in pills of 75 mg two times a day. Once desired effect is attained 75 mg per day is sufficient.

c1ccc(CN2CCNCC2)cc1 [N-Benzyl Piperazine, 1-benzylpiperazine]
effectiveness as a mild anti-depressant: effective
